Target: T1, Fsr (Sinorhizobium meliloti, UniProt Q92RK8)
T1 construct: native full-length protein in S. meliloti 1021 cells, compared with fsr::loxSp null mutant; 398 residues; MFS membrane transporter
Assay: fluorometric accumulation and efflux assay, wild-type versus fsr null mutant cells
Assay type: cell-based
Details: whole cells, 10 ug/ml EtBr, 0.4% glucose as energy source; CCCP 25 ug/ml as decoupler in parallel; proton-dependent efflux

T1 sequence (Q92RK8 entry or part of it): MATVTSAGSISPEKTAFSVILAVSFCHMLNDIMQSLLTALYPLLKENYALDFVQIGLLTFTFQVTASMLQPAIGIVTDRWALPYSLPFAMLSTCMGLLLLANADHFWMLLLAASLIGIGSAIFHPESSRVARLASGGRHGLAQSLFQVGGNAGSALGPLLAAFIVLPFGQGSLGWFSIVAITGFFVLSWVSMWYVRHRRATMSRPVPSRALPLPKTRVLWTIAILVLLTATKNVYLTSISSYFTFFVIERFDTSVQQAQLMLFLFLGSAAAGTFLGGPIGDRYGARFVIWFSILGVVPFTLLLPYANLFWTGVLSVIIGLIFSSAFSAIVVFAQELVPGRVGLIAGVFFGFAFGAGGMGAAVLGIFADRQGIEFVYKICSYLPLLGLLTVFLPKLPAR

## CC[n+]1c(-c2ccccc2)c2cc(N)ccc2c2ccc(N)cc21 [EtBr, ethidium bromide]
  fluorometric accumulation and efflux assay, wild-type versus fsr null mutant cel: The rate and extent of EtBr efflux were higher in the wild type

Source: article PMC12095868, “The Fsr transporter of Sinorhizobium meliloti contributes to antimicrobial resistance and symbiosis with alfalfa” (Microbiology, 2025)
